Source: ChEMBL document CHEMBL5233246, “CT1-3, a novel magnolol-sulforaphane hybrid suppresses tumorigenesis through inducing mitochondria-mediated apoptosis and inhibiting epithelial mesenchymal transition” (Eur J Med Chem, 2020)
pIC50: −log10 of the molar value. Calls of active or inactive are those of the source. The rule behind the calls is not given here.

How the values were obtained:
[1] = tested on: U-251; assay: Antiproliferative activity against human U-251 cells assessed as reduction in cell viability incubated for 24 hrs by CCK-8 assay; format: functional, cell-based; conditions: U-251, 24 h
[2] = Antiproliferative activity against human […] cells assessed as reduction in cell viability incubated for 24 hrs by CCK-8 assay; format: functional, cell-based
[3] = tested on: HONE1 cell line; assay: Antiproliferative activity against human HONE1 cell line assessed as reduction in cell viability incubated for 24 hrs by CCK-8 assay; format: functional, cell-based; conditions: HONE1, 24 h
[4] = tested on: A549; assay: Antiproliferative activity against human A549 cells assessed as reduction in cell viability incubated for 24 hrs by CCK-8 assay; format: functional, cell-based; conditions: A549, 24 h
[5] = Antiproliferative activity against human NCI-H1688 cells assessed as reduction in cell viability incubated for 24 hrs by CCK-8 assay; format: functional, cell-based; conditions: NCI-H1688, 24 h
[6] = tested on: NCI-H1650; assay: Antiproliferative activity against human NCI-H1650 cells assessed as reduction in cell viability incubated for 24 hrs by CCK-8 assay; format: functional, cell-based; conditions: NCI-H1650, 24 h
[7] = tested on: NCI-H1299; assay: Antiproliferative activity against human NCI-H1299 cells assessed as reduction in cell viability incubated for 24 hrs by CCK-8 assay; format: functional, cell-based; conditions: NCI-H1299, 24 h
[8] = tested on: NCI-H460; assay: Antiproliferative activity against human NCI-H460 cells assessed as reduction in cell viability incubated for 24 hrs by CCK-8 assay; format: functional, cell-based; conditions: NCI-H460, 24 h
[9] = tested on: HepG2; assay: Antiproliferative activity against human HepG2 cells assessed as reduction in cell viability incubated for 24 hrs by CCK-8 assay; format: functional, cell-based; conditions: HepG2, 24 h
[10] = tested on: MCF7; assay: Antiproliferative activity against human MCF7 cells assessed as reduction in cell viability incubated for 24 hrs by CCK-8 assay; format: functional, cell-based; conditions: MCF7, 24 h
[11] = tested on: MDA-MB-231; assay: Antiproliferative activity against human MDA-MB-231 cells assessed as reduction in cell viability incubated for 24 hrs by CCK-8 assay; format: functional, cell-based; conditions: MDA-MB-231, 24 h
[12] = tested on: AGS; assay: Antiproliferative activity against human AGS cells assessed as reduction in cell viability incubated for 24 hrs by CCK-8 assay; format: functional, cell-based
[13] = tested on: SGC-7901; assay: Antiproliferative activity against human SGC-7901 cells assessed as reduction in cell viability incubated for 24 hrs by CCK-8 assay; format: functional, cell-based; conditions: SGC-7901, 24 h
[14] = tested on: LoVo; assay: Antiproliferative activity against human LoVo cells assessed as reduction in cell viability incubated for 24 hrs by CCK-8 assay; format: functional, cell-based
[15] = tested on: SW480; assay: Antiproliferative activity against human SW480 cells assessed as reduction in cell viability incubated for 24 hrs by CCK-8 assay; format: functional, cell-based; conditions: SW480, 24 h
[16] = tested on: OVCAR-3; assay: Antiproliferative activity against human OVCAR-3 cells assessed as reduction in cell viability incubated for 24 hrs by CCK-8 assay; format: functional, cell-based; conditions: OVCAR-3, 24 h
[17] = tested on: NCI-H460; assay: Cytotoxicity against human NCI-H460 cells assessed as reduction in cell viability at 10 uM incubated for 8 hr by CCK-8 assay; format: functional, cell-based
[18] = tested on: L02; assay: Cytotoxicity against human L02 cells assessed as reduction in cell viability incubated for 8 hrs by CCK-8 assay; format: toxicity, cell-based; conditions: l02, 8 h

Compound | pIC50 [1] | pIC50 [2] | pIC50 [3] | pIC50 [4] | pIC50 [5] | pIC50 [6] | pIC50 [7] | pIC50 [8] | pIC50 [9] | pIC50 [10] | pIC50 [11] | pIC50 [12] | pIC50 [13] | pIC50 [14] | pIC50 [15] | pIC50 [16] | Activity [17] | Activity [18]
C[S+]([O-])CCCCN=C=S (stereo not drawn) [SULFORAPHANE] | 4.65 | 4.60 | 4.72 | 4.70 | 4.77 | 4.66 | 4.94 | 4.67 | 4.68 | 4.64 | 4.65 | 4.73 | 4.60 | 4.73 | 4.75 | 4.73 | inactive | Non-Toxic
C=CCc1ccc(O)c(-c2cc(CC=C)ccc2O)c1 [MAGNOLOL] | < 4.35 | < 4.35 | < 4.35 | < 4.35 | < 4.35 | < 4.35 | < 4.35 | < 4.35 | < 4.35 | < 4.35 | < 4.35 | < 4.35 | < 4.35 | < 4.35 | < 4.35 | < 4.35 | inactive | Non-Toxic
C=CCc1ccc(O)c(-c2cc(CC=C)ccc2OCCS(=O)(=O)CCCCN=C=S)c1 |  |  |  |  |  |  |  |  |  |  |  |  |  |  |  |  | inactive | Non-Toxic
